Data as given in ChEMBL document CHEMBL6078666, “Discovery of Novel Coumarin Pleuromutilin Derivatives as Potent Anti-MRSA Agents” (J Med Chem, 2024).
≈ marks a conversion by molar mass, not a printed value.

Assays:
Format in all cases: functional
[1] = test system: Staphylococcus aureus; assay: Antibacterial activity against methicillin-resistant Staphylococcus aureus ATCC 33591 assessed as bacterial growth inhibition measured after 20 hrs by broth dilution method
[2] = test system: Staphylococcus aureus; assay: Antibacterial activity against methicillin-resistant Staphylococcus aureus ATCC 43300 assessed as bacterial growth inhibition measured after 20 hrs by broth dilution method
[3] = test system: Staphylococcus epidermidis; assay: Antibacterial activity against Staphylococcus epidermidis ATCC 51625 assessed as bacterial growth inhibition measured after 20 hrs by broth dilution method
[4] = test system: Enterococcus faecium; assay: Antibacterial activity against vancomycin-resistant Enterococcus faecium ATCC 51559 assessed as bacterial growth inhibition measured after 20 hrs by broth dilution method
[5] = test system: Enterococcus faecium; assay: Antibacterial activity against vancomycin-resistant Enterococcus faecium ATCC 700221 assessed as bacterial growth inhibition measured after 20 hrs by broth dilution method
[6] = test system: Streptococcus pneumoniae; assay: Antibacterial activity against penicillin-resistant Streptococcus pneumoniae ATCC 51916 assessed as bacterial growth inhibition measured after 20 hrs by broth dilution method
[7] = test system: Streptococcus pneumoniae; assay: Antibacterial activity against penicillin-intermediate Streptococcus pneumoniae ATCC 49619 assessed as bacterial growth inhibition measured after 20 hrs by broth dilution method
[8] = test system: Staphylococcus aureus; assay: Ratio of MBC to MIC against Staphylococcus aureus ATCC 43300
[9] = test system: Staphylococcus epidermidis; assay: Ratio of MBC to MIC against Staphylococcus epidermidis ATCC 51625
[10] = test system: Enterococcus faecium; assay: Ratio of MBC to MIC against vancomycin-resistant Enterococcus faecium ATCC 51559
[11] = test system: Enterococcus faecium; assay: Ratio of MBC to MIC against vancomycin-resistant Enterococcus faecium ATCC 700221
[12] = test system: Streptococcus pneumoniae; assay: Ratio of MBC to MIC against penicillin-intermediate Streptococcus pneumoniae ATCC 49619
[13] = test system: Staphylococcus aureus; assay: Ratio of MBC to MIC against methicillin-resistant Staphylococcus aureus ATCC 33591
[14] = test system: Staphylococcus aureus; assay: Antibacterial activity against methicillin-resistant Staphylococcus aureus clinical isolate 202311772 assessed as bacterial growth inhibition measured after 20 hrs by broth dilution method
[15] = test system: Staphylococcus aureus; assay: Antibacterial activity against methicillin-resistant Staphylococcus aureus clinical isolate 202313160 assessed as bacterial growth inhibition measured after 20 hrs by broth dilution method
[16] = test system: Staphylococcus aureus; assay: Antibacterial activity against methicillin-resistant Staphylococcus aureus clinical isolate 202405157 assessed as bacterial growth inhibition measured after 20 hrs by broth dilution method
[17] = test system: Staphylococcus epidermidis; assay: Antibacterial activity against methicillin-resistant Staphylococcus epidermidis clinical isolate 202409454 assessed as bacterial growth inhibition measured after 20 hrs by broth dilution method
[18] = test system: Staphylococcus epidermidis; assay: Antibacterial activity against methicillin-resistant Staphylococcus epidermidis clinical isolate 202409139 assessed as bacterial growth inhibition measured after 20 hrs by broth dilution method
[19] = test system: Enterococcus faecium; assay: Antibacterial activity against vancomycin-resistant Enterococcus faecium clinical isolate 202308456 assessed as bacterial growth inhibition measured after 20 hrs by broth dilution method
[20] = test system: Staphylococcus aureus; assay: Ratio of MBC to MIC against methicillin-resistant Staphylococcus aureus clinical isolate 202313160
[21] = test system: Staphylococcus aureus; assay: Ratio of MBC to MIC against methicillin-resistant Staphylococcus aureus clinical isolate 202405157
[22] = test system: Enterococcus faecium; assay: Ratio of MBC to MIC against vancomycin-resistant Enterococcus faecium clinical isolate 202308456
[23] = test system: Streptococcus pneumoniae; assay: Ratio of MBC to MIC against penicillin-resistant Streptococcus pneumoniae ATCC 51916

Work on `C=C[C@]1(C)C[C@@H](OC(=O)CSCCOc2cc(=O)oc3cc(Br)ccc23)[C@]2(C)[C@H](C)CC[C@]3(CCC(=O)[C@H]32)[C@@H](C)[C@@H]1O` yielded an MIC [1] of 0.125 µg/mL (≈ 0.189 µM), an MIC [2] of 0.25 µg/mL (≈ 0.378 µM) and an MIC [3] of 0.125 µg/mL (≈ 0.189 µM). For the same compound, the MIC [4] was 0.5 µg/mL (≈ 0.756 µM), the MIC [5] was 0.125 µg/mL (≈ 0.189 µM) and the MIC [6] was 0.25 µg/mL (≈ 0.378 µM). The MIC [7] was 0.125 µg/mL (≈ 0.189 µM), the Ratio [8] was over 4 and the Ratio [9] was over 4. For the same compound, the Ratio [10] was 2, the Ratio [11] was 2 and the Ratio [12] was over 4.
`C=C[C@]1(C)C[C@@H](OC(=O)CSc2cc(=O)oc3cc(C)ccc23)[C@]2(C)[C@H](C)CC[C@]3(CCC(=O)[C@H]32)[C@@H](C)[C@@H]1O` was tested, and the MIC [1] was 0.031 µg/mL (≈ 0.0561 µM), the MIC [2] was 0.063 µg/mL (≈ 0.114 µM) and the MIC [3] was 0.016 µg/mL (≈ 0.0289 µM). The MIC [4] was 0.063 µg/mL (≈ 0.114 µM), the MIC [5] was 0.031 µg/mL (≈ 0.0561 µM) and the MIC [7] was 0.063 µg/mL (≈ 0.114 µM). For the same compound, the Ratio [13] was over 4, the Ratio [8] was 2 and the Ratio [9] was over 4. For the same compound, the Ratio [10] was 2, the Ratio [11] was 2 and the Ratio [12] was over 4. The MIC [14] was 0.031 µg/mL (≈ 0.0561 µM), the MIC [15] was 0.125 µg/mL (≈ 0.226 µM) and the MIC [16] was 0.125 µg/mL (≈ 0.226 µM). It also gave an MIC [17] of 0.063 µg/mL (≈ 0.114 µM), an MIC [18] of 0.125 µg/mL (≈ 0.226 µM) and an MIC [19] of 0.063 µg/mL (≈ 0.114 µM). The Ratio [20] was 4, the Ratio [21] was 4 and the Ratio [22] was 2.
In the case of `C=C[C@]1(C)C[C@@H](OC(=O)CSCCOc2cc(=O)oc3ccc(OC)cc23)[C@]2(C)[C@H](C)CC[C@]3(CCC(=O)[C@H]32)[C@@H](C)[C@@H]1O`, the MIC [1] is reported as 0.125 µg/mL (≈ 0.204 µM), the MIC [2] is reported as 0.25 µg/mL (≈ 0.408 µM) and the MIC [3] is reported as 0.031 µg/mL (≈ 0.0506 µM). For the same compound, the MIC [4] was 0.25 µg/mL (≈ 0.408 µM), the MIC [5] was 0.063 µg/mL (≈ 0.103 µM) and the MIC [6] was 0.125 µg/mL (≈ 0.204 µM). It also gave an MIC [7] of 0.125 µg/mL (≈ 0.204 µM), a Ratio [8] of over 4 and a Ratio [9] of 4. For the same compound, the Ratio [10] was 1, the Ratio [11] was over 4 and the Ratio [12] was over 4.
`C=C[C@]1(C)C[C@@H](OC(=O)CSCCOc2cc(=O)oc3ccc(Br)cc23)[C@]2(C)[C@H](C)CC[C@]3(CCC(=O)[C@H]32)[C@@H](C)[C@@H]1O` was tested, and the MIC [1] was 0.25 µg/mL (≈ 0.378 µM), the MIC [2] was 1 µg/mL (≈ 1.51 µM) and the MIC [3] was 0.25 µg/mL (≈ 0.378 µM). For the same compound, the MIC [4] was 16 µg/mL (≈ 24.2 µM), the MIC [5] was 1 µg/mL (≈ 1.51 µM) and the MIC [6] was 2 µg/mL (≈ 3.02 µM). It also gave an MIC [7] of 2 µg/mL (≈ 3.02 µM), a Ratio [13] of over 4 and a Ratio [8] of 2. For the same compound, the Ratio [9] was over 4, the Ratio [10] was 2 and the Ratio [11] was 2. The Ratio [23] was 4 and the Ratio [12] was over 4.
Compound `C=C[C@]1(C)C[C@@H](OC(=O)CSCCOc2cc(=O)oc3ccc(C)cc23)[C@]2(C)[C@H](C)CC[C@]3(CCC(=O)[C@H]32)[C@@H](C)[C@@H]1O` has an MIC [1] of 0.25 µg/mL (≈ 0.419 µM), an MIC [2] of 0.125 µg/mL (≈ 0.209 µM) and an MIC [3] of 0.125 µg/mL (≈ 0.209 µM). The MIC [4] was 0.25 µg/mL (≈ 0.419 µM), the MIC [5] was 0.125 µg/mL (≈ 0.209 µM) and the MIC [6] was 0.25 µg/mL (≈ 0.419 µM). It also gave an MIC [7] of 0.063 µg/mL (≈ 0.106 µM), a Ratio [8] of over 4 and a Ratio [9] of over 4. For the same compound, the Ratio [10] was 1, the Ratio [11] was over 4 and the Ratio [23] was over 4. The Ratio [12] was 2.
Compound `C=C[C@]1(C)C[C@@H](OC(=O)CSc2cc(=O)oc3ccc(C)cc23)[C@]2(C)[C@H](C)CC[C@]3(CCC(=O)[C@H]32)[C@@H](C)[C@@H]1O` has an MIC [1] of 0.125 µg/mL (≈ 0.226 µM), an MIC [2] of 0.125 µg/mL (≈ 0.226 µM) and an MIC [3] of 0.063 µg/mL (≈ 0.114 µM). For the same compound, the MIC [4] was 2 µg/mL (≈ 3.62 µM), the MIC [5] was 0.25 µg/mL (≈ 0.452 µM) and the MIC [6] was 0.125 µg/mL (≈ 0.226 µM). For the same compound, the MIC [7] was 0.25 µg/mL (≈ 0.452 µM), the Ratio [8] was over 4 and the Ratio [9] was over 4. For the same compound, the Ratio [10] was 2, the Ratio [11] was 4 and the Ratio [23] was over 4. The Ratio [12] was 4.
`C=C[C@]1(C)C[C@@H](OC(=O)CSCCOc2cc(=O)oc3cc(Cl)ccc23)[C@]2(C)[C@H](C)CC[C@]3(CCC(=O)[C@H]32)[C@@H](C)[C@@H]1O` was tested, and the MIC [1] was 0.25 µg/mL (≈ 0.405 µM), the MIC [2] was 1 µg/mL (≈ 1.62 µM) and the MIC [3] was 0.125 µg/mL (≈ 0.203 µM). It also gave an MIC [4] of 0.5 µg/mL (≈ 0.81 µM), an MIC [5] of 0.125 µg/mL (≈ 0.203 µM) and an MIC [6] of 0.125 µg/mL (≈ 0.203 µM). For the same compound, the MIC [7] was 0.063 µg/mL (≈ 0.102 µM), the Ratio [8] was over 4 and the Ratio [9] was over 4. The Ratio [10] was over 4, the Ratio [11] was over 4 and the Ratio [23] was 2. For the same compound, the Ratio [12] was over 4.
`C=C[C@]1(C)C[C@@H](OC(=O)CSCCOc2cc(=O)oc3cc(F)ccc23)[C@]2(C)[C@H](C)CC[C@]3(CCC(=O)[C@H]32)[C@@H](C)[C@@H]1O` gave an MIC [1] of 0.125 µg/mL (≈ 0.208 µM), an MIC [2] of 0.125 µg/mL (≈ 0.208 µM) and an MIC [3] of 0.031 µg/mL (≈ 0.0516 µM). For the same compound, the MIC [4] was 0.25 µg/mL (≈ 0.416 µM), the MIC [5] was 0.125 µg/mL (≈ 0.208 µM) and the MIC [6] was 0.125 µg/mL (≈ 0.208 µM). For the same compound, the MIC [7] was 0.25 µg/mL (≈ 0.416 µM), the Ratio [8] was over 4 and the Ratio [9] was over 4. The Ratio [10] was 2, the Ratio [11] was over 4 and the Ratio [12] was over 4.
